Usually IC50 stands for the point on the concentration scale where inhibition reaches its midpoint. Low values mean greater potency, high ones weaker potency.

The first assay concerns Porcine Smooth Muscle Cell. The assay can be described thus: Effects of compounds on cell proliferation using 3H thymidine incorporation (porcine smooth muscle cell antiproliferation). Type of assay: cell-based. The note with it: at 50 μM, control (100%) = maximally stimulated cells. Here is the method:
Effects of Compounds on Cell Proliferation Using ^3H Thymidine Incorporation
Human and porcine smooth muscle cells were tested in early passage (generally passage 3-7) at sub-confluent conditions. Cultures were grown in 16 mm (24 well) multi-well culture dishes in medium 199 supplemented with 10% fetal bovine serum and 2% antibiotic/antimycotic. At sub-confluence, the cells were placed in a defined serum free medium (AIM-V; Gibco) for 24-48 h prior to initiating the experimental protocol.
Compounds were added to each well at 50 fold dilution (20 μL/well) and the plates were incubated for 24-36 h at 37° C. in 5% CO2. Compounds were initially dissolved in 50% ethanol and serially diluted into media. Compounds were routinely evaluated at concentrations from 1 to 100 μM. As a control, grade II porcine intestinal mucosal herapin (sodium salt) was routinely evaluated in all cell preparations at concentrations from 0.1 to 100 μg/mL.
At the completion of the test procedure, plates were placed on ice, washed three times with ice cold phosphate buffered saline (PBS) and incubated in ice cold 10% trichloroacetic acid (TCA) got 30 min to remove acid soluble proteins. Solution was transferred to scintillation vials containing 0.4 N HCl (500 μL/vial to neutralize NaOH) and each well was rinsed two times with water (500 μL) for a total volume of 2 mL/vial.
Data was obtained, in triplicate, for both control and experimental samples. Control (100%) data was obtained from maximally stimulated cells, as the result of growth factor or serum stimulation. Experimental data was obtained from cells maximally stimulated with growth factor or serum and treated with compound. Data are expressed as an IC50 in Table I below.
For `CCCCOc1c(Cl)cc(C(=O)NC2OC(COC(=O)c3ccccc3)C(OC3OC4COC(c5ccccc5)OC4C(O)C3O)C(O)C2O)cc1OC` [Example 27, N[(6-O-benzoyloxy-4′,6′-O-benzylidene)-β-D-maltosyl]-4-butoxy-3-chloro-5-methoxy-benzamide], the “Porcine Smooth Muscle Cell Antiproliferation, % at 50 μM” value came to 45% at 50.
Consider `CC(=O)Nc1cc(C(=O)N[C@@H]2O[C@H](COC(C)=O)[C@@H](O[C@H]3O[C@H](COC(C)=O)[C@@H](OC(C)=O)[C@H](OC(C)=O)[C@H]3OC(C)=O)[C@H](OC(C)=O)[C@H]2OC(C)=O)ccc1OCCCC#N` [Example 33], for which the “Porcine Smooth Muscle Cell Antiproliferation, % at 50 μM” value is given as 0% at 50.
As to `N#CCCCOc1ccc(C(=O)NC2OC(CO)C(OC3OC4COC(c5ccccc5)OC4C(O)C3O)C(O)C2O)cc1[N+](=O)[O-]` [Example 29, N-(4′,6′-O-Benzylidene-β-D-maltosyl)-4-(4-nitrilo-butoxy)-3-nitro-benzamide], the “Porcine Smooth Muscle Cell Antiproliferation, % at 50 μM” value was 4% at 50.
`CC(=O)OCC1OC(NC(=O)c2ccc(OCCCC#N)c([N+](=O)[O-])c2)C(OC(C)=O)C(OC(C)=O)C1OC1OC(COC(C)=O)C(OC(C)=O)C(OC(C)=O)C1OC(C)=O` (stereo not drawn) [Example 28]: the “Porcine Smooth Muscle Cell Antiproliferation, % at 50 μM” value came out at 3% at 50.
On to `O=C(N[C@@H]1O[C@H](CO)[C@@H](O[C@H]2O[C@@H]3COC(c4ccccc4)O[C@H]3[C@H](O)[C@H]2O)[C@H](O)[C@H]1O)c1cccc(C(F)(F)F)c1` (stereo partly drawn) [Example 39, N-(4′,6′-O-Benzylidene-β-D-maltosyl)-3-(trifluoromethyl)-Benzamide], for which the “Porcine Smooth Muscle Cell Antiproliferation, % at 50 μM” value is reported as 15% at 50.
Regarding `CC(=O)OC1C(NC(=O)c2ccc(OCCCC#N)c(Cl)c2)OC(COC(=O)c2ccccc2)C(OC2OC3COC(c4ccccc4)OC3C(OC(C)=O)C2OC(C)=O)C1OC(C)=O` [Example 17, N-(2,2′,3,3′-tetra-O-Acetyl-6-O-benzoyl-4′,6′-O-benzylidene-β-D-maltosyl)-3-chloro-4-(4-nitrilo-butoxy)-benzamide], the “Porcine Smooth Muscle Cell Antiproliferation, % at 50 μM” value came to 33% at 50.
Consider `O=C(NC1OC(CO)C(OC2OC3COC(c4ccccc4)OC3C(O)C2O)C(O)C1O)c1ccc(Cl)c([N+](=O)[O-])c1` [Example 5, (R)-4-chloro-3-nitro-N-[4-O-[4,6-O-(phenylmethylene)-α-D-glucopyranosyl]-β-D-glucopyranosyl]-benzamide], for which the “Porcine Smooth Muscle Cell Antiproliferation, % at 50 μM” value is 37% at 50.
With `O=C(N[C@@H]1O[C@H](CO)[C@@H](O[C@H]2O[C@@H]3COC(c4ccccc4)O[C@H]3[C@H](O)[C@H]2O)[C@H](O)[C@H]1O)c1ccc(Cl)cc1` (stereo partly drawn) [Example 11, N-(4′,6′-O-Benzylidene-β-D-maltosyl)-4-chloro-benzamide], the “Porcine Smooth Muscle Cell Antiproliferation, % at 50 μM” value turned out to be 15% at 50.
Turning to `CC(=O)OC[C@H]1O[C@@H](NC(=O)Cc2ccc(O)c([N+](=O)[O-])c2)[C@H](OC(C)=O)[C@@H](OC(C)=O)[C@@H]1O[C@H]1O[C@H](COC(C)=O)[C@@H](OC(C)=O)[C@H](OC(C)=O)[C@H]1OC(C)=O` [Example 48, N-(Hepta-O-acetyl-β-D-maltosyl)-2-(4-hydroxy-3-nitro-phenyl)-acetamide], the “Porcine Smooth Muscle Cell Antiproliferation, % at 50 μM” value is 37% at 50.
With `CC(=O)OC[C@H]1O[C@@H](NC(=O)c2ccc(OCCCC#N)c(N)c2)[C@H](OC(C)=O)[C@@H](OC(C)=O)[C@@H]1O[C@H]1O[C@H](COC(C)=O)[C@@H](OC(C)=O)[C@H](OC(C)=O)[C@H]1OC(C)=O` [Example 32], the “Porcine Smooth Muscle Cell Antiproliferation, % at 50 μM” value is on record as 10% at 50.

Still in this assay, the particulars now being: serum/growth factor stimulated cells, 24-36 h incubation.
Consider `O=C(NC1OC(COC(=O)c2ccccc2)C(OC2OC3COC(c4ccccc4)OC3C(O)C2O)C(O)C1O)c1cccc(C(F)(F)F)c1` [Example 40, N-[{6-O-Benzoyl-4′,6′-O-benzylidene}-β-D-maltosyl]-3-(trifluoromethyl)-benzamide], for which the IC50 came to 7.15 µM.
For the compound `CC(=O)OC[C@H]1O[C@@H](NC(=O)c2ccc(Cl)cc2)[C@H](OC(C)=O)[C@@H](OC(C)=O)[C@@H]1O[C@H]1O[C@H](COC(C)=O)[C@@H](OC(C)=O)[C@H](OC(C)=O)[C@H]1OC(C)=O` [Example 10, N-(Hepta-O-acetyl-β-D-maltosyl)-4-chloro-benzamide], the IC50 amounted to 36.6 µM.
On the same count and under the same terms, the result for `CCCCOc1c(Cl)cc(C(=O)NC2OC(COC(C)=O)C(OC3OC(COC(C)=O)C(OC(C)=O)C(OC(C)=O)C3OC(C)=O)C(OC(C)=O)C2OC(C)=O)cc1OC` [Example 25, N-(2,2′,3,3′,4,6,6′-hepta-O-acetyl-β-D-maltosyl]-4-butoxy-5-chloro-3-methoxy-benzamide] reads 2.7 µM.
Take `CC(=O)Nc1cc(C(=O)NC2OC(COC(=O)c3ccccc3)C(OC3OC4COC(c5ccccc5)OC4C(O)C3O)C(O)C2O)ccc1Cl` [Example 6, (R)-3-(Acetylamino)-N-[6-O-benzoyl-4-O-[4,6-O-(phenylmethylene)-α-D-glucopyranosyl]-β-D-glucopyranosyl]-4-chloro-benzamide]: the IC50 was 0.45 µM.
In turn, `CC(=O)OC[C@H]1O[C@@H](NC(=O)c2ccc(C)nc2)[C@H](OC(C)=O)[C@@H](OC(C)=O)[C@@H]1O[C@H]1O[C@H](COC(C)=O)[C@@H](OC(C)=O)[C@H](OC(C)=O)[C@H]1OC(C)=O` [Example 41, N-(Hepta-O-acetyl-β-D-maltosyl)-6-methylpyridine-3-carboxamide] displayed a concentration for half-maximal inhibition (IC50) of 65.8 µM.
Still for that read-out and setting: under `CC(=O)OC[C@H]1O[C@H](NC(=O)c2ccc(OCCCC#N)c(Cl)c2)[C@H](OC(C)=O)[C@@H](OC(C)=O)[C@@H]1O[C@H]1O[C@H](COC(C)=O)[C@@H](OC(C)=O)[C@H](OC(C)=O)[C@H]1OC(C)=O` [Example 14] stands 51.3 µM; under `CC(=O)OC[C@H]1O[C@@H](NC(=O)c2ccc(OCCCC#N)c(Cl)c2)[C@H](OC(C)=O)[C@@H](OC(C)=O)[C@@H]1O[C@H]1O[C@H](COC(C)=O)[C@@H](OC(C)=O)[C@H](OC(C)=O)[C@H]1OC(C)=O` [Example 13], 32.8 µM; under `CC(=O)OC[C@H]1O[C@@H](NC(=O)c2ccc(Cl)c([N+](=O)[O-])c2)[C@H](OC(C)=O)[C@@H](OC(C)=O)[C@@H]1O[C@H]1O[C@H](COC(C)=O)[C@@H](OC(C)=O)[C@H](OC(C)=O)[C@H]1OC(C)=O` [Example 1, N-(Hepta-O-acetyl-1-deoxy-β-D-maltosyl)-4-chloro-3-nitro-benzamide], 21.2 µM.
Same read-out and setting: under `CCCCOc1c(Cl)cc(C(=O)N[C@@H]2O[C@H](COC(C)=O)[C@@H](O[C@H]3O[C@H](COC(C)=O)[C@@H](OC(C)=O)[C@H](OC(C)=O)[C@H]3OC(C)=O)[C@H](OC(C)=O)[C@H]2OC(C)=O)cc1Cl` [Example 49, N-(2,2′,3,3′,4′,6,6′-Hepta-O-acetyl-β-D-maltosyl)-4-butoxy-3,5-dichloro-benzylamide] stands 12.6 µM; under `CC(=O)Nc1cc(C(=O)NC2OC(CO)C(OC3OC4COC(c5ccccc5)OC4C(O)C3O)C(O)C2O)ccc1Cl` [Example 4, (R)-3-(Acetylamino)-4-chloro-N-[4-O-[4,6-O-(phenylmethylene)-α-D-glucopyranosyl]-β-D-glucopyranosyl]-benzamide], 3.2 µM; under `O=C(NC1OC(COC(=O)c2ccccc2)C(OC2OC3COC(c4ccccc4)OC3C(O)C2O)C(O)C1O)c1ccc(Cl)c([N+](=O)[O-])c1` [Example 7, (R)-4-chloro-N-[(6-O-benzoyl-4′,6′-O-benzylidene)-β-D-maltosyl]-3-nitro-benzamide], 0.55 µM.

The values above are taken from patent US6339064B1, “Benzylglycosylamides as inhibitors of smooth muscle cell proliferation” (American Home Products Corporation, priority 1998, dated 2002).
